Measured values as given in patent publication US11225480B2, “Malic enzyme inhibitors” (SUN PHARMA ADVANCED RESEARCH COMPANY LTD, priority 2019, dated 2022).

Assays:
Type in all cases: biochemical
human ME3 enzyme = biological target: T1, human ME3 enzyme (Homo sapiens, UniProt Q16798); test: ME3 inhibition assay (diaphorase/resazurin coupled fluorescence); settings: 10 μM compound concentration; read-out: Malic Enzyme 3 % inhibition (10 μM)
T1 sequence (Q16798 1-604): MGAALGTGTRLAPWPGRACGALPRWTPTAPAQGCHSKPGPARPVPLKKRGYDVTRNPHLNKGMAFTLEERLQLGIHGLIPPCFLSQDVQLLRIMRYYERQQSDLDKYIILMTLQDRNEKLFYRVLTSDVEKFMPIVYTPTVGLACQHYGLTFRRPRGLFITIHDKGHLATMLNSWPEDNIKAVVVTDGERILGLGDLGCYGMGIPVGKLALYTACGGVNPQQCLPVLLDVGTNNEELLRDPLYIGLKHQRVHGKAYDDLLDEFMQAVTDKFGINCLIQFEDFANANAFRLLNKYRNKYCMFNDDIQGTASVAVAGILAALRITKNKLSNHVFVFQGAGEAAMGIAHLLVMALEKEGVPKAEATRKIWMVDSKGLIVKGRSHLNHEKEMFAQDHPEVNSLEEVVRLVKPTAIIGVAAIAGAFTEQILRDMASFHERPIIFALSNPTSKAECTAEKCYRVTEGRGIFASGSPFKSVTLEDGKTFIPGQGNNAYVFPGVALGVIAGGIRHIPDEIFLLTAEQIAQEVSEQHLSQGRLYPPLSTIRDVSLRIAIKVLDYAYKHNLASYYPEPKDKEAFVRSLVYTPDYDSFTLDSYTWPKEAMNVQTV
How it was run: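 Coupled read-out: NADPH made by human ME3 (20 nM stock) drives diaphorase conversion of resazurin (50 μM) to resorufin; buffer 50 mM Tris-HCl pH 7.5, 10 mM MnCl2, 3 mM L-malate.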

human ME2 enzyme = human ME2 enzyme (Homo sapiens, UniProt P23368); test: ME2 inhibition assay (diaphorase/resazurin coupled fluorescence); settings: 10 μM compound concentration; read-out: Malic Enzyme 2 % inhibition (10 μM)
Sequence of human ME2 enzyme (P23368 19-584): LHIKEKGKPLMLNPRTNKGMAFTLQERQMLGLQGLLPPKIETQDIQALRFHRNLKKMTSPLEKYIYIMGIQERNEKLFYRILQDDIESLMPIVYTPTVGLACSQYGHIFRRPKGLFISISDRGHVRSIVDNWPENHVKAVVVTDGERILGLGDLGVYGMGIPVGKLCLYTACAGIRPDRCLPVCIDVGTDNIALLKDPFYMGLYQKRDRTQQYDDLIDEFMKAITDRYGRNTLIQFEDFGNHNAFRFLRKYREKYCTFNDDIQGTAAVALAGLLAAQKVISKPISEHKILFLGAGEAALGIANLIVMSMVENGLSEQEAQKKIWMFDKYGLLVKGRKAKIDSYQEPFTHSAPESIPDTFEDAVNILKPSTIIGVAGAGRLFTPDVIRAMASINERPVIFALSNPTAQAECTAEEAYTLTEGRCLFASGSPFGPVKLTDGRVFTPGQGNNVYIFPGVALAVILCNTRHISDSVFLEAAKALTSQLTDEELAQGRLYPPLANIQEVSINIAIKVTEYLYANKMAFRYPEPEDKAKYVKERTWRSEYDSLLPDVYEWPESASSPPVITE
How it was run: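 Human ME2 (10 μL of 60 nM) was preincubated 5 min at room temperature with compound (10 μM) in 50 mM Tris-HCl pH 7.5, 10 mM MnCl2, 7 mM L-malate, 50 μM resazurin and 0.025 mg/ml diaphorase. The reaction was started with 10 μL of 2 mM β-NAD+ and run 2 hours at room temperature. Resorufin fluorescence (ex 540/em 600 nm) was normalized to enzyme-only (100%) and no-enzyme (0%) controls as % activity.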

human ME1 enzyme = biological target: T2, human ME1 enzyme (Homo sapiens, UniProt P48163); test: ME1 inhibition assay (diaphorase/resazurin coupled fluorescence); settings: 10 μM compound concentration; read-out: Malic Enzyme 1 % inhibition (10 μM)
T2 sequence (P48163 1-572): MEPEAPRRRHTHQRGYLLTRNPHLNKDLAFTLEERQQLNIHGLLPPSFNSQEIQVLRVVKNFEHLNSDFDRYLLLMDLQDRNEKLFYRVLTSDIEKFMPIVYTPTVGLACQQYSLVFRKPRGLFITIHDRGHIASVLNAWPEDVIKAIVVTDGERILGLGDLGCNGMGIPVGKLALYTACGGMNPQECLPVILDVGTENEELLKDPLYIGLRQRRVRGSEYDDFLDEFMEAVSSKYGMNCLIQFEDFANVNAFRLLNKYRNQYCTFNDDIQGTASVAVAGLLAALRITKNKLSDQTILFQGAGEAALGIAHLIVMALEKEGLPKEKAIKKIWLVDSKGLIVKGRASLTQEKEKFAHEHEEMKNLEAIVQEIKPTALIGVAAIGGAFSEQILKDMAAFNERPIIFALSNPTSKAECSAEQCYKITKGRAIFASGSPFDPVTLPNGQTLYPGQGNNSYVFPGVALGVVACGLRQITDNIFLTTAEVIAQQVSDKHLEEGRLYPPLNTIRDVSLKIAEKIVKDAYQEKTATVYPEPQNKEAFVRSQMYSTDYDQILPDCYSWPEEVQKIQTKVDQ
How it was run: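 Compounds at 10 μM preincubated 15 min in 50 mM Tris-HCl pH 7.5, 10 mM MnCl2, 2 mM L-malate, 10 μM resazurin, 0.01 mg/ml diaphorase, then human ME1 added for 5 min; reaction started with NADP+ and run 2 h at room temperature. Resorufin fluorescence (ex 540/em 600 nm) normalized to enzyme-only (100%) and no-enzyme (0%) controls.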

SMILES: O=C(CSc1ccccc1Br)N1CCN(c2ccc(O)cn2)CC1 [I.143, 2-(2-Bromo-phenylsulfanyl)-1-[4-(5-hydroxy-pyridin-2-yl)-piperazin-1-yl]-ethanone]
- inhibition at 10 µM (human ME3 enzyme): > 90%
- inhibition at 10 µM (human ME2 enzyme): > 90%
- inhibition at 10 µM (human ME1 enzyme): > 90%

SMILES: O=C(C(O)Cc1ccccc1)N1CCN(c2ccc(O)cn2)CC1 (stereo not drawn) [I.144, 2-Hydroxy-1-[4-(5-hydroxy-pyridin-2-yl)-piperazin-1-yl]-3-phenyl-propan-1-one]
- inhibition at 10 µM (human ME3 enzyme): > 90%
- inhibition at 10 µM (human ME2 enzyme): > 90%
- inhibition at 10 µM (human ME1 enzyme): 50 to 69%

SMILES: Cc1cc(F)ccc1CCC(=O)N1CCN(c2ccc(O)cn2)CC1 [I.145, 3-(4-Fluoro-2-methyl-phenyl)-1-[4-(5-hydroxy-pyridin-2-yl)-piperazin-1-yl]-propan-1-one]
- inhibition at 10 µM (human ME3 enzyme): > 90%
- inhibition at 10 µM (human ME2 enzyme): > 90%
- inhibition at 10 µM (human ME1 enzyme): > 90%

SMILES: Cc1cccc(CCC(=O)N2CCN(c3ccc(O)cn3)CC2)c1C [I.146, 3-(2,3-Dimethyl-phenyl)-1-[4-(5-hydroxy-pyridin-2-yl)-piperazin-1-yl]-propan-1-one]
- inhibition at 10 µM (human ME3 enzyme): > 90%
- inhibition at 10 µM (human ME2 enzyme): > 90%
- inhibition at 10 µM (human ME1 enzyme): > 90%

SMILES: Cc1cccc(C)c1CCC(=O)N1CCN(c2ccc(O)cn2)CC1 [I.147, 3-(2,6-Dimethyl-phenyl)-1-[4-(5-hydroxy-pyridin-2-yl)-piperazin-1-yl]-propan-1-one]
- inhibition at 10 µM (human ME3 enzyme): > 90%
- inhibition at 10 µM (human ME2 enzyme): > 90%
- inhibition at 10 µM (human ME1 enzyme): > 90%

SMILES: O=C(Cc1cc(F)cc(F)c1)N1CCN(c2ccc(O)cc2)CC1 [I.148, 2-(3,5-difluoro-phenyl)-1-[4-(4-hydroxy-phenyl)-piperazin-1-yl]-ethanone]
- inhibition at 10 µM (human ME3 enzyme): > 90%
- inhibition at 10 µM (human ME2 enzyme): > 90%
- inhibition at 10 µM (human ME1 enzyme): > 90%

SMILES: O=C(Cc1ccc(F)cc1F)N1CCN(c2ccc(O)cc2)CC1 [I.149, 2-(2,4-difluoro-phenyl)-1-[4-(4-hydroxy-phenyl)-piperazin-1-yl]-ethanone]
- inhibition at 10 µM (human ME3 enzyme): > 90%
- inhibition at 10 µM (human ME2 enzyme): > 90%
- inhibition at 10 µM (human ME1 enzyme): > 90%

SMILES: O=C(Cc1c[nH]c2ccc(F)cc12)N1CCN(c2ccc(O)cc2)CC1 [I.150, 2-(5-fluoro-1H-indol-3-yl)-1-[4-(4-hydroxy-phenyl)-piperazin-1-yl]-ethanone]
- inhibition at 10 µM (human ME3 enzyme): > 90%
- inhibition at 10 µM (human ME2 enzyme): > 90%
- inhibition at 10 µM (human ME1 enzyme): > 90%

SMILES: O=C(CSc1ccccc1Br)N1CCN(c2ccc(O)cc2)CC1 [I.151, 2-(2-bromo-phenylsulfanyl)-1-[4-(4-hydroxy-phenyl)-piperazin-1-yl]-ethanone]
- inhibition at 10 µM (human ME3 enzyme): > 90%
- inhibition at 10 µM (human ME2 enzyme): > 90%
- inhibition at 10 µM (human ME1 enzyme): > 90%

SMILES: O=C(CCc1ccc(F)cc1F)N1CCN(c2ccc(O)cn2)CC1 [I.152, 3-(2,4-Difluoro-phenyl)-1-[4-(5-hydroxy-pyridin-2-yl)-piperazin-1-yl]-propan-1-one]
- inhibition at 10 µM (human ME3 enzyme): > 90%
- inhibition at 10 µM (human ME2 enzyme): > 90%
- inhibition at 10 µM (human ME1 enzyme): > 90%

SMILES: O=C(CCc1ccc(F)c(F)c1)N1CCN(c2ccc(O)cn2)CC1 [I.153, 3-(3,4-Difluoro-phenyl)-1-[4-(5-hydroxy-pyridin-2-yl)-piperazin-1-yl]-propan-1-one]
- inhibition at 10 µM (human ME3 enzyme): > 90%
- inhibition at 10 µM (human ME2 enzyme): > 90%
- inhibition at 10 µM (human ME1 enzyme): > 90%

SMILES: Cc1cccc(Cl)c1C(=O)N1CCN(c2ccc(O)cc2)CC1 [I.154, (2-Chloro-6-methylphenyl)-[4-(4-hydroxy-phenyl)-piperazin-1-yl]-methanone]
- inhibition at 10 µM (human ME3 enzyme): > 90%
- inhibition at 10 µM (human ME2 enzyme): > 90%
- inhibition at 10 µM (human ME1 enzyme): > 90%

SMILES: O=C(c1c[nH]c2ccc(F)cc12)N1CCN(c2ccc(O)cn2)CC1 [I.155, (5-Fluoro-1H-indol-3-yl)-[4-(5-hydroxy-pyridin-2-yl)-piperazin-1-yl]-methanone]
- inhibition at 10 µM (human ME3 enzyme): > 90%
- inhibition at 10 µM (human ME2 enzyme): > 90%
- inhibition at 10 µM (human ME1 enzyme): > 90%

SMILES: O=C(c1c[nH]c2ccc(F)cc12)N1CCN(c2ccc(O)cc2)CC1 [I.156, (5-Fluoro-1H-indol-3-yl)-[4-(4-hydroxy-phenyl)-piperazin-1-yl]-methanone]
- inhibition at 10 µM (human ME3 enzyme): > 90%
- inhibition at 10 µM (human ME2 enzyme): > 90%
- inhibition at 10 µM (human ME1 enzyme): > 90%
